Laboratory results as given in patent US12258547B2, “Cell culture plate, method for preparing thereof and method for detecting a substance” (UPM-Kymmene Corporation, priority 2019, dated 2025).
Structures can show the parent of a compound that is named as a salt.

Columns and labels:
[1] = Experiment 1: WST-1 viability of BJ fibroblast monoculture, direct exposure; details: human
Description: (§1) Cell viability/cytotoxicity was always investigated using WST-1 assay. The assay principle is based on the conversion of the tetrazolium salt WST-1 into a colored dye by mitochondrial dehydrogenase enzymes. The soluble salt is released into the media. Within a given time period, the reaction produces a color change which is directly proportional to the amount of mitochondrial dehydrogenase in a given culture. As a result, the assay actually measures the net metabolic activity of cells. Theoretically, this is reflective of cell number • the more cells, the more dehydrogenase available to reduce the reagent.
(§2) BJ cell suspension was prepared at a density of 40 000 cells/ml in BJ cell culture medium. 100 μl of this suspension was pipetted to a 96-well plate resulting in 4000 cells/well.
(§3) Selegiline and paracetamol dilutions were prepared on the day of use. First, 1 mg/ml stocks were prepared from both drugs, then 200 and 20 μg/ml dilutions were prepared from paracetamol stock, and 200, 20, 10, 5 and 2 μg/ml dilutions from selegiline stock. The stocks and dilutions were prepared in BJ chemical dilution medium. Selegiline toxicity was studied more extensively than paracetamol, because there was no previous data of selegiline toxicity to BJ fibroblasts. Instead, paracetamol toxicity to human BJ fibroblasts has been extensively studied.
(§4) BJ cell culture medium was removed from the cells by dumping and blotting the plate carefully on sterile towel. Immediately, 50 μl BJ cell culture medium was added to all wells, and then 50 μl test item dilutions (selegiline or paracetamol) or 50 μl vehicle control. […] BJ chemical dilution medium was used as vehicle control. […] One of the plates was incubated for 3 hrs and the other for 20 hrs.
(§5) After the 3-hours or 20 hrs incubation, 10 μl WST-1 reagent was added into the wells. The plate was incubated for 2 hrs, thereafter absorbance was read at 450 nm.
(§6) Blank values (contained all reagents, including drugs, but no cells) were subtracted from the absorbance data. […] The statistical difference between untreated control and treated cells was assessed using t-test (SigmaPiot).

[2] = test system: BJ fibroblasts; experiment: as above; details: for toxicity to BJ fibroblast monocultures: drug as such, without HepaRG treatment
Description: as §1, §2, §3, §4, §5, §6

[3] = Experiments 2-3: HepaRG/BJ co-culture separated by GrowDex barrier, dosing via HepaRG, WST-1, BJ side; details: human, decrease of BJ viability, 10 μg/ml via HepaRG, 3 hrs
Description: as §1, with “reagent. […]” for “reagent.”
(§7) The mean absorbances were calculated separately for each well and both sides of the barrier. The decision on the acceptability of the data was made individually for each well. The data of the well was accepted provided that the barrier functioned properly, i.e. the ratio of HepaRG and BJ absorbances at 450 nm was >2.0.
(§8) GrowDex barriers were prepared to split the wells of a 24-well plate into two “equally sized” compartments as follows. 250 μl GrowDex was pipetted to the wells (using positive displacement pipette) to construct the first layer of the barrier. The barriers were left to dry in the laminar hood for 1 hr with the lid open. Then a second layer was pipetted on the top of the first layer.
(§9) BJ cell suspension was prepared at a density of 70 000 cells/ml BJ cell culture medium, and 150 μl of this suspension was pipetted to the right side of the barriers resulting in 10 500 cells/well.
(§10) HepaRG suspension was prepared at a density of 2 million HepaRG cells/ml HepaRG® Thawing/Plating/General Purpose Medium 670. Medium was removed from the left side of the barrier. 150 μl HepaRG suspension, i.e., 300 000 cells was added to each well. The plate was gently agitated in back-and-forth and side-to-side manner, and the homogeneity of the cell distribution was ensured visually. The plate was placed back into cell culture incubator and the cells were let recover for 4 hrs before exposure.
(§11) Medium was carefully removed from the HepaRG cells (left side of the barrier), and replaced with 75 μl/well HepaRG TOX Medium/well. This was performed one well at a time.

[4] = test system: BJ fibroblasts; experiment: as above; details: for MEAN absorbance at 450 nm / MEDIAN absorbance at 450 nm / viability, % of control: BJ cells
Description: as §1, with “reagent. […]” for “reagent.”
as §7, §8, §9, §10, §11

[5] = Experiments 2-3: HepaRG/BJ co-culture separated by GrowDex barrier, dosing via HepaRG, WST-1, HepaRG side; assay type: cell-based; details: human
Method: (§12) The soluble salt is released into the media.
(§13) Eight barriers were prepared using this method. […] Four barriers were prepared using this method.
(§14) The plate was incubated for 1 hr.
(§15) This was performed one well at a time.
(§16) Absorbance was read using the Multipoint measurement.

[6] = test system: HepaRG cells; experiment: as above; assay type: cell-based; details: for MEAN absorbance at 450 nm / MEDIAN absorbance at 450 nm / viability, % of control: HepaRG
Method: as §12, §13, §14, §15, §16

[7] = test system: BJ fibroblasts; experiment: Experiment 4: BJ cells exposed to direct or HepaRG-conditioned paracetamol, WST-1; assay type: cell-based, Human; details: 500 μg/ml, conditioned 20 hrs with HepaRG, 24 hrs exposure
Method: The HepaRG cells that were left from Experiment 3 were seeded to a 25 cm^2 cell culture flask, and cultured for 1 week. Medium (HepaRG induction medium) was renewed twice during the week.
The medium was removed from HepaRG cells (grown in a 25 cm^2 flask), and replaced by 2.5 ml of HepaRG TOX medium. Then 2.5 ml of 1 mg/ml paracetamol prepared in HepaRG TOX medium was added to the flask (final paracetamol concentration 500 μg/ml). HepaRG cells were incubated with paracetamol for 20 hrs.
The medium was removed from BJ cells, and replaced by 500 μg/ml paracetamol in BJ chemical dilution medium or 500 μg/ml HepaRG-conditioned-paracetamol in HepaRG TOX-medium. BJ chemical dilution medium and HepaRG TOX medium served as vehicle controls. All treatments were tested in 16 parallel wells. The exposure time was 24 hrs.
After the exposure, 10 μl WST-1 reagent was added to the wells. The plate was incubated for 2 hrs, and the absorbance was read at 450 nm.

[8] = 1 μg/ml selegiline via HepaRG, 3 hrs
[9] = 5 μg/ml selegiline via HepaRG, 3 hrs
[10] = 10 μg/ml selegiline via HepaRG, 3 hrs
[11] = 250 μg/ml paracetamol via HepaRG, 4 hrs
[12] = 250 μg/ml paracetamol via HepaRG, 20 hrs
[13] = 500 μg/ml paracetamol via HepaRG, 4 hrs
[14] = 500 μg/ml paracetamol via HepaRG, 20 hrs

## C#CCN(C)[C@H](C)Cc1ccccc1 [selegiline, Selegiline hydrochloride]
[1]
  cytotoxicity at 500 μg/ml: ~10%
[2]
  toxicity to BJ fibroblast monocultures: not toxic
[2]; lowest selegiline concentrations
  increase of BJ fibroblast viability: ~10%
[3]
  cytotoxicity at 3 h, 10 μg/ml: ~25%
[4]; 1 and 5 μg/ml via HepaRG, 3 hrs
  effect on BJ viability: seemed to increase
[4]; [8]
  MEAN absorbance at 450 nm: 1.429
  MEDIAN absorbance at 450 nm: 1.539
  viability, % of control: 141.43 % of control
[4]; [9]
  MEAN absorbance at 450 nm: 1.219
  MEDIAN absorbance at 450 nm: 1.243
  viability, % of control: 120.69 % of control
[4]; [10]
  MEAN absorbance at 450 nm: 0.760
  MEDIAN absorbance at 450 nm: 0.676
  viability, % of control: 75.19 % of control
[5]; 10 μg/ml, 3 hrs, read-out: decrease of HepaRG viability
  cytotoxicity at 3 h, 10 μg/ml: ~5%
[6]; 1 and 5 μg/ml, 3 hrs
  effect on HepaRG viability: seemed to increase
[6]; 1 μg/ml selegiline, 3 hrs
  MEAN absorbance at 450 nm: 3.486
  MEDIAN absorbance at 450 nm: 3.794
  viability, % of control: 114.23 % of control
[6]; 5 μg/ml selegiline, 3 hrs
  MEAN absorbance at 450 nm: 3.344
  MEDIAN absorbance at 450 nm: 3.588
  viability, % of control: 109.57 % of control
[6]; 10 μg/ml selegiline, 3 hrs
  MEAN absorbance at 450 nm: 2.892
  MEDIAN absorbance at 450 nm: 3.078
  viability, % of control: 94.77 % of control

## CC(=O)Nc1ccc(O)cc1 [paracetamol, Paracetamol]
[2]; 500 μg/ml, 3 hrs exposure
  increase of BJ cell viability: ~9%
[2]
  toxicity to BJ fibroblast monocultures: not toxic
[2]; up to 500 μg/ml, 3 and 20 hrs
  effect on viability of BJ fibroblasts: did not reduce the viability
[4]; 250 μg/ml via HepaRG, 4 hrs
  increase of BJ cell viability: ~40%
[4]; 250 μg/ml via HepaRG, 20 hrs
  increase of BJ viability: ~30%
[4]; 500 μg/ml via HepaRG, short exposure (4 hrs)
  effect on BJ cell viability: did not affect cell viability
[4]; [11]
  MEAN absorbance at 450 nm: 1.685
  MEDIAN absorbance at 450 nm: 1.777
  viability, % of control: 140.89 % of control
[4]; [12]
  MEAN absorbance at 450 nm: 1.777
  MEDIAN absorbance at 450 nm: 1.801
  viability, % of control: 128.23 % of control
[4]; [13]
  MEAN absorbance at 450 nm: 1.188
  MEDIAN absorbance at 450 nm: 1.164
  viability, % of control: 99.34 % of control
[4]; [14]
  MEAN absorbance at 450 nm: 1.356
  MEDIAN absorbance at 450 nm: 1.325
  viability, % of control: 97.89 % of control
[5]; 250 μg/ml, 4 hrs, read-out: decrease of HepaRG viability
  cytotoxicity at 4 h, 250 μg/ml: ~15%
[5]; highest concentration (500 μg/ml), 20 hrs, read-out: reduction of HepaRG viability
  cytotoxicity at 20 h, 500 μg/ml: ~10%
[6]; 500 μg/ml, short exposure (4 hrs)
  effect on HepaRG cell viability: did not affect cell viability
[6]; 250 μg/ml paracetamol, 4 hrs
  MEAN absorbance at 450 nm: 3.571
  MEDIAN absorbance at 450 nm: 3.513
  viability, % of control: 85.58 % of control
[6]; 250 μg/ml paracetamol, 20 hrs
  MEAN absorbance at 450 nm: 4.196
  MEDIAN absorbance at 450 nm: 4.239
  viability, % of control: 105.78 % of control
[6]; 500 μg/ml paracetamol, 4 hrs
  MEAN absorbance at 450 nm: 4.074
  MEDIAN absorbance at 450 nm: 4.134
  viability, % of control: 97.65 % of control
[6]; 500 μg/ml paracetamol, 20 hrs
  MEAN absorbance at 450 nm: 3.606
  MEDIAN absorbance at 450 nm: 3.771
  viability, % of control: 90.91 % of control
[7]
  effect of HepaRG-treatment on BJ fibroblast viability: minor effect
